According to patent publication US20250340557A1, “PYRIMIDINE DERIVATIVE” (ASKA PHARMACEUTICAL CO., LTD., priority 2022, published 2025):

The compounds below were run against T1, human mPGES-1 (Homo sapiens, UniProt O14684) (assay: Test for mPGES-1 inhibitory activity (microsomal enzyme, PGE2 EIA)). Conditions: microsomes from COS-1 cells transfected with human mPGES-1 cDNA; substrate PGH2 1 μM; 4° C., 4 minutes; PGE2 measured by EIA; read-out: h mPGES1 IC50.
T1 construct: made in house; host or cells: COS-1 cells (transient transfection; microsomal fraction used as enzyme)
T1 sequence (O14684 1-152): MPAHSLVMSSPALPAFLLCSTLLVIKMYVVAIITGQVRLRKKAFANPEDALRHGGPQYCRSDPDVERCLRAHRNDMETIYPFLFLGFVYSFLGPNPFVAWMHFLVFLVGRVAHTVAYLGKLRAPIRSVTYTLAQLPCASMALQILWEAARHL
Assay type: biochemical
Description: Test Example 1: Test for mPGES-1 Inhibitory Activity
Microsomes were prepared from COS-1 cells transiently transfected with a plasmid containing human mPGES-1 cDNA, and used as mPGES-1 enzyme. The mPGES-1 enzyme was diluted with a sodium phosphate buffer (pH 7.2) containing reduced glutathione (2.5 mM) and EDTA (1 mM), DMSO or a DMSO solution of a test compound (final concentration of DMSO was 2%) was added to the enzyme, and the mixture was preincubated at 4° C. for 15 minutes. Then, PGH2 (Prostaglandin H2) as the substrate was added at a final concentration of 1 μM to start the enzymatic reaction, and after incubation at 4° C. for 4 minutes, a solution of ferric chloride (25 mM) and citric acid (50 mM) was added to terminate the enzymatic reaction. Generated PGE2 (Prostaglandin E2) was measured by using Prostaglandin E2 Express EIA Kit (Cayman Chemical). IC50 values were determined by using a standard method.

SMILES | IC50 [nM]
O=C(NCc1ccc(C(F)(F)F)c(-c2nc(C(F)(F)F)cc(=O)[nH]2)c1F)C1CCN(c2ccc3nccn3n2)CC1 [Example 1, N-{2-fluoro-3-[6-oxo-4-(trifluoromethyl)-1,6-dihydropyrimidin-2-yl]-4-(trifluoromethyl)benzyl}-1-(imidazo[1,2-b]pyridazin-6-yl)piperidine-4-carboxamide] | 37
O=C(NCc1ccc(C(F)(F)F)c(-c2nc(C(F)(F)F)cc(=O)[nH]2)c1F)c1ccc(-c2ccc3nccn3n2)cc1 [Example 2, N-{2-fluoro-3-[6-oxo-4-(trifluoromethyl)-1,6-dihydropyrimidin-2-yl]-4-(trifluoromethyl)benzyl}-4-(imidazo[1,2-b]pyridazin-6-yl)benzamide] | 28.7
O=C(NCc1ccc(C(F)(F)F)c(-c2nc(C(F)(F)F)cc(=O)[nH]2)c1F)C1CCN(c2ccc3ccccc3n2)CC1 [Example 5, N-{2-fluoro-3-[6-oxo-4-(trifluoromethyl)-1,6-dihydropyrimidin-2-yl]-4-(trifluoromethyl)benzyl}-1-(quinolin-2-yl)piperidine-4-carboxamide] | < 10
Cc1cccc2ccc(N3CC(C(=O)NCc4ccc(C(F)(F)F)c(-c5nc(C(F)(F)F)cc(=O)[nH]5)c4F)C3)nc12 [Example 6, N-{2-fluoro-3-[6-oxo-4-(trifluoromethyl)-1,6-dihydropyrimidin-2-yl]-4-(trifluoromethyl)benzyl}-1-(8-methylquinolin-2-yl)azetidine-3-carboxamide] | < 10
Cc1cccc2ccc(N3CCC(C(=O)NCc4ccc(C(F)(F)F)c(-c5nccc(=O)[nH]5)c4F)CC3)nc12 [Example 7, N-[2-fluoro-3-(6-oxo-1,6-dihydropyrimidin-2-yl)-4-(trifluoromethyl)benzyl]-1-(8-methylquinolin-2-yl)piperidine-4-carboxamide] | < 1
Cc1cc(=O)[nH]c(-c2c(C(F)(F)F)ccc(CNC(=O)C3CCN(c4ccc5cccc(C)c5n4)CC3)c2F)n1 [Example 9, N-[2-fluoro-3-(4-methyl-6-oxo-1,6-dihydropyrimidin-2-yl)-4-(trifluoromethyl)benzyl]-1-(8-methylquinolin-2-yl)piperidine-4-carboxamide] | < 10
CCc1cc(=O)[nH]c(-c2c(C(F)(F)F)ccc(CNC(=O)C3CCN(c4ccc5cccc(C)c5n4)CC3)c2F)n1 [Example 10, N-[3-(4-ethyl-6-oxo-1,6-dihydropyrimidin-2-yl)-2-fluoro-4-(trifluoromethyl)benzyl]-1-(8-methylquinolin-2-yl)piperidine-4-carboxamide] | < 1

Now from value to compound:

IC50 [nM] | SMILES
< 1 | O=c1cc(C(F)(F)F)nc(-c2c(C(F)(F)F)ccc(CNC(=O)[C@H]3C[C@@H](OCc4cccc(Cl)c4)C3)c2F)[nH]1 (stereo in doubt) [Example 139, cis-3-[(3-chlorobenzyl)oxy]-N-{2-fluoro-3-[6-oxo-4-(trifluoromethyl)-1,6-dihydropyrimidin-2-yl]-4-(trifluoromethyl)benzyl}cyclobutane-1-carboxamide]
< 1 | Cc1cnc2ccc(N3CCC(C(=O)NCc4ccc(C(F)(F)F)c(-c5nc(C(F)(F)F)cc(=O)[nH]5)c4F)CC3)nn12 [Example 3, N-{2-fluoro-3-[6-oxo-4-(trifluoromethyl)-1,6-dihydropyrimidin-2-yl]-4-(trifluoromethyl)benzyl}-1-(3-methylimidazo[1,2-b]pyridazin-6-yl)piperidine-4-carboxamide]
< 1 | Cc1cccc2ccc(N3CCC(C(=O)NCc4ccc(C(F)(F)F)c(-c5nc(C(F)(F)F)cc(=O)[nH]5)c4F)CC3)nc12 [Example 4, N-{2-fluoro-3-[6-oxo-4-(trifluoromethyl)-1,6-dihydropyrimidin-2-yl]-4-(trifluoromethyl)benzyl}-1-(8-methylquinolin-2-yl)piperidine-4-carboxamide]
0.64 | Cc1cccc2ccc(N3CCC(C(=O)NCc4ccc(Cl)c(-c5nccc(=O)[nH]5)c4)CC3)nc12 [Example 8, N-[4-chloro-3-(6-oxo-1,6-dihydropyrimidin-2-yl)benzyl]-1-(8-methylquinolin-2-yl)piperidine-4-carboxamide]
